Experimental data from ChEMBL document CHEMBL1201862, “PubChem BioAssay data set” (2004).
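Protocol summary: plate cells (96-well), add compound at 5 concentrations, incubate 48 h, interpolate endpoints linearly. GI50: concentration for 50% inhibition of growth.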 Activity calls are given as the source filed them. Cut-off read from the data, not from the text of the source: active = GI50 up to about 1.1 µM and inactive = higher.

Key:
Assay in all cases: inhibition of tumour cell growth, NCI panel, 48 h
DLD-1 = test system: DLD-1
M19-MEL = test system: M19-MEL
DMS-273 = test system: DMS-273
LXFL 529 = test system: LXFL 529
DMS-114 = test system: DMS-114
HOP-18 = test system: HOP-18
KM-20L2 = test system: KM-20L2
XF498 = test system: XF498
RXF 631 = test system: RXF 631

SMILES	GI50 (DLD-1)	GI50 (M19-MEL)	GI50 (DMS-273)	GI50 (LXFL 529)	GI50 (DMS-114)	GI50 (HOP-18)	GI50 (KM-20L2)	GI50 (XF498)	GI50 (RXF 631)
O=C(c1c(O)cc(O)cc1O)C1Cc2ccccc21 (stereo not given)	> 100 µM (inactive)	> 100 µM (inactive)	48.2 µM (inactive)	> 100 µM (inactive)	> 100 µM (inactive)	3.18 µM (inactive)	> 100 µM (inactive)		
CC(=O)OC1(C#N)CC2OC1C1C2N1C(=O)OC(C)(C)C (stereo not given)	> 100 µM (inactive)	> 100 µM (inactive)		> 100 µM (inactive)	> 100 µM (inactive)		> 100 µM (inactive)	> 100 µM (inactive)	
Cc1c2cc[n+](C)cc2c(C)c2c1[nH]c1ccc(OCC(F)(F)F)cc12	1.4 µM (inactive)	2.14 µM (inactive)	1.25 µM (inactive)	0.501 µM (active)	1.42 µM (inactive)	1.96 µM (inactive)	3.15 µM (inactive)		
O=C(Nc1c(O)[nH]c(=S)[nH]c1=O)c1ccccn1	> 100 µM (inactive)	> 100 µM (inactive)		> 100 µM (inactive)	> 100 µM (inactive)	> 100 µM (inactive)	> 100 µM (inactive)		> 100 µM (inactive)
CNC(=O)OCc1nc(SSc2nc(COC(=O)NC)c(COC(=O)NC)n2C)n(C)c1COC(=O)NC	> 100 µM (inactive)	> 100 µM (inactive)	> 100 µM (inactive)	> 100 µM (inactive)	> 100 µM (inactive)	> 100 µM (inactive)	> 100 µM (inactive)	> 100 µM (inactive)	> 100 µM (inactive)
CCOC(=O)CSc1nnc(C(Sc2nc(-c3ccccc3)c(-c3ccccc3)[nH]2)C(C)C)n1-c1ccccc1 (stereo not given)	> 10 µM (inactive)	> 10 µM (inactive)	> 10 µM (inactive)	> 10 µM (inactive)	> 10 µM (inactive)		> 10 µM (inactive)		
CC(=O)c1c2c(cc3c1CC1(C3)Cc3cc4c(c(C(C)=O)c3C1)CCC4)CCC2	> 100 µM (inactive)	> 100 µM (inactive)		> 100 µM (inactive)	> 100 µM (inactive)	> 100 µM (inactive)		> 100 µM (inactive)	> 100 µM (inactive)
CC(=O)N1CCC2(c3ccccc3N(C(C)=O)C2c2ccc(O)cc2)C1C(=O)O (stereo not given)	> 100 µM (inactive)	> 100 µM (inactive)	> 100 µM (inactive)	> 100 µM (inactive)	> 100 µM (inactive)	> 100 µM (inactive)	> 100 µM (inactive)	> 100 µM (inactive)	
CC(SC(=O)Nc1ccc(/N=N/c2ccccc2)cc1)C(=O)O (stereo not given)			48.6 µM (inactive)	98.4 µM (inactive)	> 100 µM (inactive)		> 100 µM (inactive)		
COC(=O)C1=C(C(=O)OC)C2(C3C(SC)=CC(C)(C)CC3S1)N(Cc1ccccc1)CCN2Cc1ccccc1 (stereo not given)	> 100 µM (inactive)	> 100 µM (inactive)	> 100 µM (inactive)	> 100 µM (inactive)	> 100 µM (inactive)	> 100 µM (inactive)	> 100 µM (inactive)	> 100 µM (inactive)	> 100 µM (inactive)
O=c1cc2ccccc2nn1Cc1cccc(Cl)c1	> 100 µM (inactive)	> 100 µM (inactive)	85.9 µM (inactive)		66.4 µM (inactive)	> 100 µM (inactive)	> 100 µM (inactive)	18.8 µM (inactive)	> 100 µM (inactive)
O=c1[nH]c(=O)n(C2CC(O)C(CO)O2)cc1/C=C/Br (stereo not given)	> 100 µM (inactive)	> 100 µM (inactive)	> 100 µM (inactive)	> 100 µM (inactive)	> 100 µM (inactive)		> 100 µM (inactive)	> 100 µM (inactive)	> 100 µM (inactive)
COc1nc(NC2OC(COC(C)=O)C(OC(C)=O)C(OC(C)=O)C2OC(C)=O)c(/N=C(\C)C(C)=O)c(=O)n1C (stereo not given)	> 100 µM (inactive)	> 100 µM (inactive)	> 10 µM (inactive)	> 100 µM (inactive)	> 100 µM (inactive)	> 100 µM (inactive)	> 100 µM (inactive)	> 100 µM (inactive)	
CCN(CC)CCCC(C)Nc1c(Sc2cnc3cc(Cl)ccc3c2NC(C)CCCN(CC)CC)cnc2cc(Cl)ccc12 (stereo not given)	1.91 µM (inactive)	1.62 µM (inactive)	1.72 µM (inactive)	1.92 µM (inactive)		2.17 µM (inactive)	1.66 µM (inactive)		2.08 µM (inactive)
Cc1ccc(S(=O)(=O)C(CC(=O)N2CCCC2)C(=O)c2ccccc2)cc1 (stereo not given)	71.1 µM (inactive)		97.1 µM (inactive)	38.5 µM (inactive)	> 100 µM (inactive)	> 100 µM (inactive)		> 100 µM (inactive)	> 100 µM (inactive)
CSc1c(C)c(C)nn1-c1ccccc1	> 100 µM (inactive)		> 100 µM (inactive)	> 100 µM (inactive)	> 100 µM (inactive)	< 0.01 µM (active)	> 100 µM (inactive)	59.8 µM (inactive)	> 100 µM (inactive)
CCOC(=O)C1C(=S)NC(=O)C1C#N (stereo not given)	> 100 µM (inactive)	> 100 µM (inactive)	> 100 µM (inactive)	> 100 µM (inactive)	> 100 µM (inactive)	> 100 µM (inactive)	> 100 µM (inactive)		> 100 µM (inactive)
CN(C)c1ccc(/C=c2/sc3nc(=O)c(-c4ccccc4NC(=O)C(F)(F)F)nn3c2=O)cc1	> 100 µM (inactive)	> 100 µM (inactive)	> 100 µM (inactive)	> 100 µM (inactive)	20.6 µM (inactive)			> 100 µM (inactive)	
CC1=CC=NN2C(=O)[C@H](C)C2C1 (stereo not given in full)	> 100 µM (inactive)	> 100 µM (inactive)	> 100 µM (inactive)	> 100 µM (inactive)	> 100 µM (inactive)	> 100 µM (inactive)	> 100 µM (inactive)	> 100 µM (inactive)	> 100 µM (inactive)
Oc1cccc(-c2cc(O)c3cc4c(cc3n2)OCO4)c1	3.43 µM (inactive)	1.49 µM (inactive)	1.09 µM (active)	1.87 µM (inactive)	0.721 µM (active)	> 100 µM (inactive)		7.26 µM (inactive)	
C/C(=N\NC(N)=S)c1ccc2c(c1)OCO2	61.9 µM (inactive)	> 100 µM (inactive)		> 100 µM (inactive)	94.8 µM (inactive)	> 100 µM (inactive)	> 100 µM (inactive)	> 100 µM (inactive)	> 100 µM (inactive)
C[N+](C)(C)CCC(=O)N1C/C(=C\c2ccccc2)C(=O)/C(=C/c2ccccc2)C1	2.2 µM (inactive)	4.81 µM (inactive)	2.19 µM (inactive)	3.78 µM (inactive)	5.98 µM (inactive)	12.2 µM (inactive)	8 µM (inactive)	14.5 µM (inactive)	
CC(C)(C)c1cc2nc(c1)C(C(F)(F)F)(C(F)(F)F)OB(Br)OC2(C(F)(F)F)C(F)(F)F	0.0248 µM (active)	0.0268 µM (active)	< 0.01 µM (active)	0.261 µM (active)	< 0.01 µM (active)	< 0.01 µM (active)	< 0.01 µM (active)	1.04 µM (active)	0.0836 µM (active)
N#COc1ccc(Oc2ccccc2)cc1	> 100 µM (inactive)	> 100 µM (inactive)	22.5 µM (inactive)	> 100 µM (inactive)	31.1 µM (inactive)	> 100 µM (inactive)	> 100 µM (inactive)	97.3 µM (inactive)	
COc1ccc(-c2cc(=O)c3ccc(O)cc3o2)c(OC)c1OC	93.1 µM (inactive)	74.3 µM (inactive)		66.8 µM (inactive)	33.2 µM (inactive)		43 µM (inactive)	65.5 µM (inactive)	
Nc1cccc(-c2cc(O)c3cc4c(cc3n2)OCO4)c1		0.931 µM (active)	0.889 µM (active)	0.527 µM (active)		40.2 µM (inactive)		7.26 µM (inactive)	
CNCCCCN(C)/[N+]([O-])=N\O	> 100 µM (inactive)	> 100 µM (inactive)	> 100 µM (inactive)	> 100 µM (inactive)	> 100 µM (inactive)	> 100 µM (inactive)	> 100 µM (inactive)		> 100 µM (inactive)
O=C1CCC2(c3ccc(Cl)cc3)Nc3ncccc3N12 (stereo not given)	> 100 µM (inactive)	> 100 µM (inactive)		> 100 µM (inactive)	> 100 µM (inactive)		> 100 µM (inactive)	> 100 µM (inactive)	
O=C(Cc1nc2ccccc2s1)Nc1ccc(Cl)cc1	91.6 µM (inactive)	> 100 µM (inactive)	84.7 µM (inactive)	44.2 µM (inactive)			50.6 µM (inactive)	> 100 µM (inactive)	
